# PubChem BioAssay (NCI)
#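 Cells were grown in 96-well plates and exposed to each compound for 48 hours at five concentrations; endpoints were interpolated linearly between bracketing concentrations, or set to the highest concentration if not reached. GI50 = concentration required for 50% inhibition of growth. TGI: concentration producing complete growth inhibition.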 Active and inactive are the calls of the source. Cut-off read from the data, not from the text of the source: active = GI50 below about 0.43 µM; inactive = the rest.
# What was measured:
# Assay in all cases: growth of human tumour cells (NCI), 48 h
# HCC-2998 colon = system: HCC-2998 colon
# SK-OV-3 ovarian = system: SK-OV-3 ovarian
# SF-295 CNS = system: SF-295 CNS
# DU-145 prostate = system: DU-145 prostate
# UACC-257 melanoma = system: UACC-257 melanoma
# PC-3 prostate = system: PC-3 prostate
# HCT-116 colon = system: HCT-116 colon
# K-562 leukemia = system: K-562 leukemia
# BT-549 breast = system: BT-549 breast
# HCT-15 colon = system: HCT-15 colon
# CAKI-1 renal = system: CAKI-1 renal
# KM12 colon = system: KM12 colon
# HOP-62 NSCLC = system: HOP-62 NSCLC
# UO-31 renal = system: UO-31 renal
# 786-0 renal = system: 786-0 renal
# U251 CNS = system: U251 CNS
# ACHN renal = system: ACHN renal
# SNB-19 CNS = system: SNB-19 CNS
# NCI-H522 lung = system: NCI-H522 lung
# A549 NSCLC = system: A549 NSCLC
# CCRF-CEM leukemia = system: CCRF-CEM leukemia
# HL-60(TB) leukemia = system: HL-60(TB) leukemia
# SK-MEL-2 melanoma = system: SK-MEL-2 melanoma
# UACC-62 melanoma = system: UACC-62 melanoma
# IGROV1 ovarian = system: IGROV1 ovarian
# MCF7 breast = system: MCF7 breast
# SK-MEL-5 melanoma = system: SK-MEL-5 melanoma
# SW-620 colon = system: SW-620 colon
# HS 578T breast = system: HS 578T breast
# NCI-H460 lung = system: NCI-H460 lung
# M14 melanoma = system: M14 melanoma
# EKVX NSCLC = system: EKVX NSCLC
# MALME-3M melanoma = system: MALME-3M melanoma
# SK-MEL-28 melanoma = system: SK-MEL-28 melanoma
# MDA-MB-435 = system: MDA-MB-435
# OVCAR-3 ovarian = system: OVCAR-3 ovarian
# MDA-MB-231 breast = system: MDA-MB-231 breast
# NCI-H23 lung = system: NCI-H23 lung
# TK-10 renal = system: TK-10 renal
# NCI-H226 lung = system: NCI-H226 lung
# MOLT-4 leukemia = system: MOLT-4 leukemia
# OVCAR-8 ovarian = system: OVCAR-8 ovarian
# COLO 205 colon = system: COLO 205 colon
# HT29 colon = system: HT29 colon
# SF-539 CNS = system: SF-539 CNS
# LOX IMVI melanoma = system: LOX IMVI melanoma
# T-47D breast = system: T-47D breast
# OVCAR-4 ovarian = system: OVCAR-4 ovarian
# A498 renal = system: A498 renal
# SR leukemia = system: SR leukemia
# SNB-75 CNS = system: SNB-75 CNS
# NCI/ADR-RES ovarian = system: NCI/ADR-RES ovarian
# RXF 393 renal = system: RXF 393 renal
# OVCAR-5 ovarian = system: OVCAR-5 ovarian
# SN12C renal = system: SN12C renal
# SF-268 CNS = system: SF-268 CNS
# RPMI-8226 leukemia = system: RPMI-8226 leukemia
structure (smiles),measurement,setting,value
Clc1ccc(CN2COc3c(ccc4cccnc34)C2)cc1Cl,GI50,HCC-2998 colon,2280 nM
same,TGI,HCC-2998 colon,8.77 µM
same,GI50,SK-OV-3 ovarian,1340 nM
same,TGI,SK-OV-3 ovarian,13.1 µM
same,GI50,SF-295 CNS,2350 nM
same,TGI,SF-295 CNS,12.6 µM
same,GI50,DU-145 prostate,1770 nM
same,TGI,DU-145 prostate,14.8 µM
same,GI50,UACC-257 melanoma,2530 nM
same,TGI,UACC-257 melanoma,7.89 µM
same,GI50,PC-3 prostate,798 nM
same,TGI,PC-3 prostate,11.5 µM
same,GI50,HCT-116 colon,712 nM
same,TGI,HCT-116 colon,2780 nM
same,GI50,K-562 leukemia,895 nM
same,TGI,K-562 leukemia,2680 nM
same,GI50,BT-549 breast,2460 nM
same,TGI,BT-549 breast,17.5 µM
same,GI50,HCT-15 colon,483 nM
same,TGI,HCT-15 colon,15.5 µM
same,GI50,CAKI-1 renal,3.28 µM
same,TGI,CAKI-1 renal,13.2 µM
same,GI50,KM12 colon,1200 nM
same,TGI,KM12 colon,4.49 µM
same,GI50,HOP-62 NSCLC,1490 nM
same,TGI,HOP-62 NSCLC,10.9 µM
same,GI50,UO-31 renal,400 nM
same,TGI,UO-31 renal,10.5 µM
same,GI50,786-0 renal,1990 nM
same,TGI,786-0 renal,5.85 µM
same,GI50,U251 CNS,966 nM
same,TGI,U251 CNS,13.2 µM
same,GI50,ACHN renal,525 nM
same,TGI,ACHN renal,10.6 µM
same,GI50,SNB-19 CNS,1980 nM
same,TGI,SNB-19 CNS,14.3 µM
same,GI50,NCI-H522 lung,1100 nM
same,TGI,NCI-H522 lung,2610 nM
same,GI50,A549 NSCLC,1640 nM
same,TGI,A549 NSCLC,12.9 µM
same,GI50,CCRF-CEM leukemia,578 nM
same,TGI,CCRF-CEM leukemia,3.69 µM
same,GI50,HL-60(TB) leukemia,297 nM
same,TGI,HL-60(TB) leukemia,1300 nM
same,GI50,SK-MEL-2 melanoma,2150 nM
same,TGI,SK-MEL-2 melanoma,7.47 µM
same,GI50,UACC-62 melanoma,584 nM
same,TGI,UACC-62 melanoma,2410 nM
same,GI50,IGROV1 ovarian,1050 nM
same,TGI,IGROV1 ovarian,3.61 µM
same,GI50,MCF7 breast,697 nM
same,TGI,MCF7 breast,3.59 µM
same,GI50,SK-MEL-5 melanoma,971 nM
same,TGI,SK-MEL-5 melanoma,2900 nM
same,GI50,SW-620 colon,1280 nM
same,TGI,SW-620 colon,5.39 µM
same,GI50,HS 578T breast,1960 nM
same,TGI,HS 578T breast,10.1 µM
same,GI50,NCI-H460 lung,532 nM
same,TGI,NCI-H460 lung,2520 nM
same,GI50,M14 melanoma,1260 nM
same,TGI,M14 melanoma,4.74 µM
same,GI50,EKVX NSCLC,1310 nM
same,TGI,EKVX NSCLC,15.2 µM
same,GI50,MALME-3M melanoma,2230 nM
same,TGI,MALME-3M melanoma,9.16 µM
same,GI50,SK-MEL-28 melanoma,1470 nM
same,TGI,SK-MEL-28 melanoma,14.2 µM
same,GI50,MDA-MB-435,1960 nM
same,TGI,MDA-MB-435,9.18 µM
same,GI50,OVCAR-3 ovarian,468 nM
same,TGI,OVCAR-3 ovarian,12.1 µM
same,GI50,MDA-MB-231 breast,1320 nM
same,TGI,MDA-MB-231 breast,9.92 µM
same,GI50,NCI-H23 lung,2560 nM
same,TGI,NCI-H23 lung,14.9 µM
same,GI50,TK-10 renal,3.35 µM
same,TGI,TK-10 renal,17.9 µM
same,GI50,NCI-H226 lung,1280 nM
same,TGI,NCI-H226 lung,7.12 µM
same,GI50,MOLT-4 leukemia,1550 nM
same,TGI,MOLT-4 leukemia,4.89 µM
same,GI50,OVCAR-8 ovarian,730 nM
same,TGI,OVCAR-8 ovarian,10.2 µM
same,GI50,COLO 205 colon,3.18 µM
same,TGI,COLO 205 colon,11.9 µM
same,GI50,HT29 colon,4.05 µM
same,TGI,HT29 colon,15.2 µM
same,GI50,SF-539 CNS,1280 nM
same,TGI,SF-539 CNS,3.72 µM
same,GI50,LOX IMVI melanoma,1010 nM
same,TGI,LOX IMVI melanoma,2700 nM
same,GI50,T-47D breast,1680 nM
same,TGI,T-47D breast,11.3 µM
same,GI50,OVCAR-4 ovarian,531 nM
same,TGI,OVCAR-4 ovarian,12.9 µM
same,GI50,A498 renal,0.00172 mM
same,TGI,A498 renal,11.8 µM
same,GI50,SR leukemia,354 nM
same,TGI,SR leukemia,1410 nM
same,GI50,SNB-75 CNS,2360 nM
same,TGI,SNB-75 CNS,13.4 µM
same,GI50,NCI/ADR-RES ovarian,394 nM
same,TGI,NCI/ADR-RES ovarian,2150 nM
same,GI50,RXF 393 renal,1050 nM
same,TGI,RXF 393 renal,4.1 µM
same,GI50,OVCAR-5 ovarian,1790 nM
same,TGI,OVCAR-5 ovarian,15.2 µM
same,GI50,SN12C renal,2040 nM
same,TGI,SN12C renal,13.8 µM
same,GI50,SF-268 CNS,1320 nM
same,TGI,SF-268 CNS,12.1 µM
CS(C)(=O)=O,outcome,SK-OV-3 ovarian,inactive
same,outcome,SF-295 CNS,inactive
same,outcome,DU-145 prostate,inactive
same,outcome,UACC-257 melanoma,inactive
same,outcome,PC-3 prostate,inactive
same,outcome,HCT-116 colon,inactive
same,outcome,K-562 leukemia,inactive
same,outcome,BT-549 breast,inactive
same,outcome,HCT-15 colon,inactive
same,outcome,CAKI-1 renal,inactive
same,outcome,KM12 colon,inactive
same,outcome,HOP-62 NSCLC,inactive
same,outcome,UO-31 renal,inactive
same,outcome,786-0 renal,inactive
same,outcome,U251 CNS,inactive
same,outcome,ACHN renal,inactive
same,outcome,SNB-19 CNS,inactive
same,outcome,NCI-H522 lung,inactive
same,outcome,A549 NSCLC,inactive
same,outcome,CCRF-CEM leukemia,inactive
same,outcome,HL-60(TB) leukemia,inactive
same,outcome,SK-MEL-2 melanoma,inactive
same,outcome,UACC-62 melanoma,inactive
same,outcome,IGROV1 ovarian,inactive
same,outcome,MCF7 breast,inactive
same,outcome,SK-MEL-5 melanoma,inactive
same,outcome,SW-620 colon,inactive
same,outcome,HS 578T breast,inactive
same,outcome,NCI-H460 lung,inactive
same,outcome,M14 melanoma,inactive
same,outcome,EKVX NSCLC,inactive
same,outcome,MALME-3M melanoma,inactive
same,outcome,SK-MEL-28 melanoma,inactive
same,outcome,MDA-MB-435,inactive
same,outcome,OVCAR-3 ovarian,inactive
same,outcome,MDA-MB-231 breast,inactive
same,outcome,NCI-H23 lung,inactive
same,outcome,TK-10 renal,inactive
same,outcome,NCI-H226 lung,inactive
same,outcome,MOLT-4 leukemia,inactive
same,outcome,OVCAR-8 ovarian,inactive
same,outcome,COLO 205 colon,inactive
same,outcome,HT29 colon,inactive
same,outcome,SF-539 CNS,inactive
same,outcome,LOX IMVI melanoma,inactive
same,outcome,T-47D breast,inactive
same,outcome,OVCAR-4 ovarian,inactive
same,GI50,A498 renal,42 mM
same,outcome,SR leukemia,inactive
same,outcome,RPMI-8226 leukemia,inactive
same,outcome,SNB-75 CNS,inactive
same,outcome,NCI/ADR-RES ovarian,inactive
same,outcome,RXF 393 renal,inactive
same,outcome,OVCAR-5 ovarian,inactive
same,outcome,SN12C renal,inactive
same,outcome,SF-268 CNS,inactive
